Patent US9695155B2, “Herbicidal substituted pyrimidinyloxy benzene compounds” (E. I. DU PONT DE NEMOURS AND COMPANY, priority 2013, dated 2017)

Columns and labels:
corn = assay: Test C postemergence; type: in vivo, Zea mays; details: Zea mays, post-emergence
In short: (§1)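 Seeds were sown in loam–sand blend and sprayed preemergence, while plants at 1- to 4-leaf stage (2–18 cm) in peat-based medium received postemergence sprays; test chemicals were formulated in a non-phytotoxic solvent with surfactant. After 13–15 days in a greenhouse, injury was rated visually against controls, 0 (no effect) to 100 (complete control).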

yellow nutsedge [1] = assay: Test C preemergence; type: in vivo, Cyperus esculentus; details: Cyperus, pre-emergence
In short: as §1

barnyardgrass [2] = assay: Test C postemergence; type: in vivo, Echinochloa crus-galli; details: Echinochloa crus-galli, post-emergence
In short: as §1

giant foxtail [3] = assay: Test A preemergence; type: in vivo, Setaria faberii; details: Setaria faberi, pre-emergence, 240 h, 0 to 100 scale where 0 is no effect and 100 is complete control
In short: (§2)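 Pre- and postemergence greenhouse screen. Soil: loam + sand. Spray carrier: solvent mixture, non-phytotoxic, with surfactant. Post timing at 1–2 leaves, height 2–10 cm. Readout: visual injury on a 0–100 scale roughly 10 days after application, untreated plants as reference.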

yellow nutsedge [4] = assay: Test C postemergence; type: in vivo, Cyperus esculentus; details: Cyperus, post-emergence
In short: as §1

galium = assay: Test C postemergence; type: in vivo, Galium aparine; details: Galium, post-emergence
In short: as §1

pigweed [5] = assay: Test A preemergence; type: in vivo, Amaranthus retroflexus; details: Amaranthus retroflexus, pre-emergence, 0 to 100 scale where 0 is no effect and 100 is complete control
In short: as §2

kochia = assay: Test C postemergence; type: in vivo, Kochia scoparia; details: Bassia scoparia, post-emergence
In short: as §1

giant foxtail [6] = assay: Test C preemergence; type: in vivo, Setaria faberii; details: Setaria faberi, pre-emergence
In short: as §1

pigweed [7] = assay: Test C preemergence; type: in vivo, Amaranthus retroflexus; details: Amaranthus retroflexus, pre-emergence
In short: as §1

rice = assay: Test B flooded paddy test; type: in vivo, Oryza sativa; details: Oryza sativa; Flood, 250 g ai/ha; 0 to 100 scale where 0 is no effect and 100 is complete control; read-out: Plant response rating, Rice
In short: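 Plants at 2-leaf stage; pots flooded to 3 cm above soil and compound applied directly into paddy water, depth held throughout. After 13 to 15 days in greenhouse, visual rating versus controls on 0 (no effect) to 100 (complete control) scale.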

wheat, winter = assay: Test C postemergence; type: in vivo, Triticum aestivum; details: Triticum aestivum, post-emergence
In short: as §1

Italian ryegrass = assay: Test C postemergence; type: in vivo, Lolium multiflorum; details: Lolium multiflorum, post-emergence
In short: as §1

barnyardgrass [8] = assay: Test C preemergence; type: in vivo, Echinochloa crus-galli; details: Echinochloa crus-galli, pre-emergence
In short: as §1

Work on `FC(F)(F)Sc1cnn(-c2ccccc2Oc2ncc(Cl)cn2)c1` [Compound 132, 5-chloro-2-[2-[4-(trifluoromethylthio)-1H-pyrazol-1-yl]phenoxy]pyrimidine] yielded a plant injury at 16 g/ha (corn; 16 g ai/ha, postemergence, 0 is no effect, 100 is complete control, read-out: Plant response rating (0 to 100), Corn) of 5%, a Corn plant response rating (crop injury, 0 = no effect, 100 = complete kill) at 125 g/ha (corn; 125 g ai/ha, postemergence, visual rating, scale 0 to 100 (0 no effect, 100 complete control)) of 10% and a Corn plant response rating (crop injury, 0 = no effect, 100 = complete kill) at 62 g/ha (corn; Postemergence, 62 g ai/ha, scale 0 to 100 (0 no effect, 100 complete control)) of 5%. It also gave a pest or weed control at 16 g/ha (yellow nutsedge [1]; 16 g ai/ha, preemergence, scale 0 to 100 (0 no effect, 100 complete control), read-out: Nutsedge, Yellow plant response rating) of 100%, a pest or weed control at 62 g/ha (yellow nutsedge [1]; 62 g ai/ha, preemergence, scale 0 (no effect) to 100 (complete control), read-out: Nutsedge, Yellow plant response rating) of 15% and a pest or weed control at 125 g/ha (yellow nutsedge [1]; 125 g ai/ha, preemergence, scale 0 (no effect) to 100 (complete control), read-out: Nutsedge, Yellow plant response rating) of 15%. For the same compound, the pest or weed control at 31 g/ha (yellow nutsedge [1]; Preemergence, 31 g ai/ha, scale 0 to 100, 0 no effect, 100 complete control, read-out: Plant response rating, Nutsedge, Yellow) was 0%, the pest or weed control at 16 g/ha (barnyardgrass [2]; 16 g ai/ha, postemergence, 0 is no effect, 100 is complete control, read-out: Plant response rating (0 to 100), Barnyardgrass) was 0% and the pest or weed control at 125 g/ha (barnyardgrass [2]; 125 g ai/ha, postemergence, visual rating, scale 0 to 100 (0 no effect, 100 complete control), read-out: Plant response rating, Barnyardgrass) was 5%. For the same compound, the pest or weed control at 31 g/ha (barnyardgrass [2]; Postemergence, 31 g ai/ha, scale 0 to 100 (0 no effect, 100 complete control), 13 to 15 days, read-out: Plant response rating, Barnyardgrass) was 0%, the pest or weed control at 62 g/ha (barnyardgrass [2]; Postemergence, 62 g ai/ha, scale 0 to 100 (0 no effect, 100 complete control), read-out: Plant response rating, Barnyardgrass) was 5% and the pest or weed control at 125 g/ha (giant foxtail [3]; 125 g ai/ha, read-out: Plant response rating, Foxtail, Giant) was 90%. For the same compound, the pest or weed control at 500 g/ha (giant foxtail [3]; 500 g ai/ha, read-out: Foxtail, Giant plant response rating) was 100%, the pest or weed control at 16 g/ha (yellow nutsedge [4]; 16 g ai/ha, postemergence, 0 is no effect, 100 is complete control, read-out: Plant response rating (0 to 100), Nutsedge, Yellow) was 0% and the pest or weed control at 125 g/ha (yellow nutsedge [4]; 125 g ai/ha, postemergence, visual rating, scale 0 to 100 (0 no effect, 100 complete control), read-out: Plant response rating, Nutsedge, Yellow) was 10%. For the same compound, the pest or weed control at 62 g/ha (yellow nutsedge [4]; Postemergence, 62 g ai/ha, scale 0 to 100 (0 no effect, 100 complete control), read-out: Plant response rating, Nutsedge, Yellow) was 0%, the pest or weed control at 16 g/ha (galium; 16 g ai/ha, postemergence, 0 is no effect, 100 is complete control, read-out: Plant response rating (0 to 100), Galium) was 50% and the pest or weed control at 125 g/ha (galium; 125 g ai/ha, postemergence, visual rating, scale 0 to 100 (0 no effect, 100 complete control), read-out: Plant response rating, Galium) was 70%. For the same compound, the pest or weed control at 62 g/ha (galium; Postemergence, 62 g ai/ha, scale 0 to 100 (0 no effect, 100 complete control), read-out: Plant response rating, Galium) was 65%, the pest or weed control at 125 g/ha (pigweed [5]; 125 g ai/ha, read-out: Plant response rating, Pigweed) was 100% and the pest or weed control at 500 g/ha (pigweed [5]; 240 h, 500 g ai/ha, read-out: Pigweed plant response rating) was 100%. The pest or weed control at 16 g/ha (kochia; 16 g ai/ha, postemergence, 0 is no effect, 100 is complete control, read-out: Plant response rating (0 to 100), Kochia) was 10%, the pest or weed control at 125 g/ha (kochia; 125 g ai/ha, postemergence, visual rating, scale 0 to 100 (0 no effect, 100 complete control), read-out: Plant response rating, Kochia) was 95% and the pest or weed control at 62 g/ha (kochia; Postemergence, 62 g ai/ha, scale 0 to 100 (0 no effect, 100 complete control), read-out: Plant response rating, Kochia) was 85%. The pest or weed control at 16 g/ha (giant foxtail [6]; 16 g ai/ha, preemergence, scale 0 to 100 (0 no effect, 100 complete control), read-out: Foxtail, Giant plant response rating) was 5%, the pest or weed control at 62 g/ha (giant foxtail [6]; 62 g ai/ha, preemergence, scale 0 (no effect) to 100 (complete control), read-out: Foxtail, Giant plant response rating) was 70% and the pest or weed control at 125 g/ha (giant foxtail [6]; 125 g ai/ha, preemergence, scale 0 (no effect) to 100 (complete control), read-out: Foxtail, Giant plant response rating) was 98%. For the same compound, the pest or weed control at 31 g/ha (giant foxtail [6]; Preemergence, 31 g ai/ha, scale 0 to 100, 0 no effect, 100 complete control, read-out: Plant response rating, Foxtail, Giant) was 55%, the pest or weed control at 16 g/ha (pigweed [7]; 16 g ai/ha, preemergence, scale 0 to 100 (0 no effect, 100 complete control), read-out: Pigweed plant response rating) was 30% and the pest or weed control at 62 g/ha (pigweed [7]; 62 g ai/ha, preemergence, scale 0 (no effect) to 100 (complete control), read-out: Pigweed plant response rating) was 70%. The pest or weed control at 125 g/ha (pigweed [7]; 125 g ai/ha, preemergence, scale 0 (no effect) to 100 (complete control), read-out: Pigweed plant response rating) was 100%, the pest or weed control at 31 g/ha (pigweed [7]; Preemergence, 31 g ai/ha, scale 0 to 100, 0 no effect, 100 complete control, read-out: Plant response rating, Pigweed) was 45% and the plant injury at 250 g/ha (rice) was 0%. For the same compound, the plant injury at 16 g/ha (wheat, winter; 16 g ai/ha, postemergence, 0 is no effect, 100 is complete control, read-out: Plant response rating (0 to 100), Wheat) was 0%, the plant injury at 125 g/ha (wheat, winter; 125 g ai/ha, postemergence, visual rating, scale 0 to 100 (0 no effect, 100 complete control), read-out: Plant response rating, Wheat) was 5% and the plant injury at 62 g/ha (wheat, winter; Postemergence, 62 g ai/ha, scale 0 to 100 (0 no effect, 100 complete control), read-out: Plant response rating, Wheat) was 0%. It also gave a pest or weed control at 16 g/ha (Italian ryegrass; 16 g ai/ha, postemergence, 0 is no effect, 100 is complete control, read-out: Plant response rating (0 to 100), Ryegrass, Italian) of 0%, a pest or weed control at 125 g/ha (Italian ryegrass; 125 g ai/ha, postemergence, visual rating, scale 0 to 100 (0 no effect, 100 complete control), read-out: Plant response rating, Ryegrass, Italian) of 5% and a pest or weed control at 62 g/ha (Italian ryegrass; Postemergence, 62 g ai/ha, scale 0 to 100 (0 no effect, 100 complete control), read-out: Plant response rating, Ryegrass, Italian) of 5%. It also gave a pest or weed control at 16 g/ha (barnyardgrass [8]; 16 g ai/ha, preemergence, scale 0 to 100 (0 no effect, 100 complete control), read-out: Barnyardgrass plant response rating) of 0%, a pest or weed control at 62 g/ha (barnyardgrass [8]; 62 g ai/ha, preemergence, scale 0 (no effect) to 100 (complete control), read-out: Barnyardgrass plant response rating) of 10% and a pest or weed control at 125 g/ha (barnyardgrass [8]; 125 g ai/ha, preemergence, scale 0 (no effect) to 100 (complete control), read-out: Barnyardgrass plant response rating) of 75%. For the same compound, the pest or weed control at 31 g/ha (barnyardgrass [8]; Preemergence, 31 g ai/ha, scale 0 to 100, 0 no effect, 100 complete control, read-out: Plant response rating, Barnyardgrass) was 0%.
